According to ChEMBL document CHEMBL4507280 (2021):

Tests used:
[1] = molecular target: Tyrosine-protein kinase ABL1 (Homo sapiens) (UniProt P00519); details: Compound concentration 1000.0 nM
[2] = molecular target: Activin receptor type-1 (Homo sapiens) (UniProt Q04771); details: Compound concentration 1000.0 nM
[3] = test system: ALK tyrosine kinase receptor (Homo sapiens), Q9UM73 [L1196M]; details: Compound concentration 1000.0 nM
[4] = molecular target: 5'-AMP-activated protein kinase catalytic subunit alpha-2 (Homo sapiens) (UniProt P54646); details: Compound concentration 1000.0 nM
[5] = molecular target: Aurora kinase A (Homo sapiens) (UniProt O14965); details: Compound concentration 1000.0 nM
[6] = molecular target: Tyrosine-protein kinase receptor UFO (Homo sapiens) (UniProt P30530); details: Compound concentration 1000.0 nM
[7] = molecular target: Bone morphogenetic protein receptor type-2 (Homo sapiens) (UniProt Q13873); details: Compound concentration 1000.0 nM
[8] = molecular target: Serine/threonine-protein kinase B-raf (Homo sapiens) (UniProt P15056); details: Compound concentration 1000.0 nM
[9] = test system: Serine/threonine-protein kinase B-raf (Homo sapiens), P15056 [V600E]; details: Compound concentration 1000.0 nM
[10] = molecular target: Serine/threonine-protein kinase Chk1 (Homo sapiens) (UniProt O14757); details: Compound concentration 1000.0 nM
[11] = molecular target: Casein kinase II subunit alpha' (Homo sapiens) (UniProt P19784); details: Compound concentration 1000.0 nM
[12] = molecular target: Dual specificity tyrosine-phosphorylation-regulated kinase 2 (Homo sapiens) (UniProt Q92630); details: Compound concentration 1000.0 nM
[13] = test system: Epidermal growth factor receptor (Homo sapiens), P00533 [UNDEFINED MUTATION]; details: Compound concentration 1000.0 nM
[14] = molecular target: Ephrin type-B receptor 3 (Homo sapiens) (UniProt P54753); details: Compound concentration 1000.0 nM
[15] = test system: Receptor-type tyrosine-protein kinase FLT3 (Homo sapiens), P36888 [D835V]; details: Compound concentration 1000.0 nM
[16] = test system: Receptor-type tyrosine-protein kinase FLT3 (Homo sapiens), P36888 [N841I]; details: Compound concentration 1000.0 nM
[17] = test system: eIF-2-alpha kinase GCN2 (Homo sapiens), Q9P2K8 [S808G]; details: Compound concentration 1000.0 nM
[18] = molecular target: G protein-coupled receptor kinase 3 (Homo sapiens) (UniProt P35626); details: Compound concentration 1000.0 nM
[19] = molecular target: Homeodomain-interacting protein kinase 1 (Homo sapiens) (UniProt Q86Z02); details: Compound concentration 1000.0 nM
[20] = molecular target: Hormonally up-regulated neu tumor-associated kinase (Homo sapiens) (UniProt P57058); details: Compound concentration 1000.0 nM
[21] = test system: Mast/stem cell growth factor receptor Kit (Homo sapiens), P10721 [V559D,V654A]; details: Compound concentration 1000.0 nM
[22] = molecular target: Dual specificity mitogen-activated protein kinase kinase 1 (Homo sapiens) (UniProt Q02750); details: Compound concentration 1000.0 nM
[23] = molecular target: Dual specificity mitogen-activated protein kinase kinase 4 (Homo sapiens) (UniProt P45985); details: Compound concentration 1000.0 nM
[24] = molecular target: Serine/threonine-protein kinase mTOR (Homo sapiens) (UniProt P42345); details: Compound concentration 1000.0 nM
[25] = molecular target: Myosin light chain kinase, smooth muscle (Homo sapiens) (UniProt Q15746); details: Compound concentration 1000.0 nM
[26] = molecular target: Serine/threonine-protein kinase PAK 6 (Homo sapiens) (UniProt Q9NQU5); details: Compound concentration 1000.0 nM
[27] = molecular target: Phosphorylase b kinase gamma catalytic chain, skeletal muscle/heart isoform (Homo sapiens) (UniProt Q16816); details: Compound concentration 1000.0 nM
[28] = molecular target: Phosphatidylinositol 3-kinase C2 domain-containing subunit gamma (Homo sapiens) (UniProt O75747); details: Compound concentration 1000.0 nM
[29] = molecular target: Phosphatidylinositol 4,5-bisphosphate 3-kinase catalytic subunit delta isoform (Homo sapiens) (UniProt O00329); details: Compound concentration 1000.0 nM
[30] = molecular target: Phosphatidylinositol 4,5-bisphosphate 3-kinase catalytic subunit gamma isoform (Homo sapiens) (UniProt P48736); details: Compound concentration 1000.0 nM
[31] = molecular target: Phosphatidylinositol 4-kinase beta (Homo sapiens) (UniProt Q9UBF8); details: Compound concentration 1000.0 nM
[32] = molecular target: cAMP-dependent protein kinase catalytic subunit PRKX (Homo sapiens) (UniProt P51817); details: Compound concentration 1000.0 nM
[33] = molecular target: Protein-tyrosine kinase 2-beta (Homo sapiens) (UniProt Q14289); details: Compound concentration 1000.0 nM
[34] = molecular target: RAF proto-oncogene serine/threonine-protein kinase (Homo sapiens) (UniProt P04049); details: Compound concentration 1000.0 nM
[35] = molecular target: Ribosomal protein S6 kinase alpha-4 (Homo sapiens) (UniProt O75676); details: Compound concentration 1000.0 nM
[36] = molecular target: SRSF protein kinase 3 (Homo sapiens) (UniProt Q9UPE1); details: Compound concentration 1000.0 nM
[37] = molecular target: Serine/threonine-protein kinase 36 (Homo sapiens) (UniProt Q9NRP7); details: Compound concentration 1000.0 nM
[38] = molecular target: Tyrosine-protein kinase receptor Tie-1 (Homo sapiens) (UniProt P35590); details: Compound concentration 1000.0 nM
[39] = molecular target: Tyrosine-protein kinase TXK (Homo sapiens) (UniProt P42681); details: Compound concentration 1000.0 nM
[40] = molecular target: Non-receptor tyrosine-protein kinase TYK2 (Homo sapiens) (UniProt P29597); details: Compound concentration 1000.0 nM
[41] = molecular target: Mitogen-activated protein kinase kinase kinase 19 (Homo sapiens) (UniProt Q56UN5); details: Compound concentration 1000.0 nM
[42] = molecular target: 5-hydroxytryptamine receptor 2B (Homo sapiens) (UniProt P41595); details: Compound concentration 10.0 uM
[43] = molecular target: D(1B) dopamine receptor (Homo sapiens) (UniProt P21918); details: Compound concentration 10.0 uM
[44] = molecular target: Mu-type opioid receptor (Homo sapiens) (UniProt P35372); details: Compound concentration 10.0 uM

Sequence of Homeodomain-interacting protein kinase 1 (Homo sapiens) (Q86Z02 whole entry, looked up): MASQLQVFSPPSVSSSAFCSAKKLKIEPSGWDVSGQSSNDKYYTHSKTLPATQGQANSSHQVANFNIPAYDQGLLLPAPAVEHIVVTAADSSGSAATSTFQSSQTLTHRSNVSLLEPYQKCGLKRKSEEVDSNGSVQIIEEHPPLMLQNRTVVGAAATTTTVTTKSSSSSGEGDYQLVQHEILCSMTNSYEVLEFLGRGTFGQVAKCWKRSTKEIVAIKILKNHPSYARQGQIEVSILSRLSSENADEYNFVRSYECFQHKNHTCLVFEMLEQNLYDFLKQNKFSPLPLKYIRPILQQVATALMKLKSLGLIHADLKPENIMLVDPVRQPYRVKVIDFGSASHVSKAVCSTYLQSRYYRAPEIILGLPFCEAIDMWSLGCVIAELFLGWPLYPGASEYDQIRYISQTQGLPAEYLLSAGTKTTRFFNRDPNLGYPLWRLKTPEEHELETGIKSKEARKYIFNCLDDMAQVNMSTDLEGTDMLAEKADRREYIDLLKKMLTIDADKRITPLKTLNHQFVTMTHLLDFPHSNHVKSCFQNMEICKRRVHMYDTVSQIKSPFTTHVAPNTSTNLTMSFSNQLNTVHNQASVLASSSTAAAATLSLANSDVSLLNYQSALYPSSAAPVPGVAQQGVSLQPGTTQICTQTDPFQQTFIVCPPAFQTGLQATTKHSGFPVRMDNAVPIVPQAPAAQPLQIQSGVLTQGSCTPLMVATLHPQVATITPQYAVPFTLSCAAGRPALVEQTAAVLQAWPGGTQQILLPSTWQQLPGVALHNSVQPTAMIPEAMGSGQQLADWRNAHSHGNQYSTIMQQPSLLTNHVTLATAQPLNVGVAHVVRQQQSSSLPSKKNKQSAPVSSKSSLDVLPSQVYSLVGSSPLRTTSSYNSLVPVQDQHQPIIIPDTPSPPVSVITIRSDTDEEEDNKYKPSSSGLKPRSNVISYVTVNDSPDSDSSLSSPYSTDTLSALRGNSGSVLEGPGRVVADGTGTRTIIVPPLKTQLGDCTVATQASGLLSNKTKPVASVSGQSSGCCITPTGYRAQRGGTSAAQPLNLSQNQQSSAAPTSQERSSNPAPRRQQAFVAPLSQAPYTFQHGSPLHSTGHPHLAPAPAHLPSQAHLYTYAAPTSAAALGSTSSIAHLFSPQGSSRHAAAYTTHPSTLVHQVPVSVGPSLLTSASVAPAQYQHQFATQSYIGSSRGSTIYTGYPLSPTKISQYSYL
Sequence of Tyrosine-protein kinase receptor UFO (Homo sapiens) (P30530 whole entry): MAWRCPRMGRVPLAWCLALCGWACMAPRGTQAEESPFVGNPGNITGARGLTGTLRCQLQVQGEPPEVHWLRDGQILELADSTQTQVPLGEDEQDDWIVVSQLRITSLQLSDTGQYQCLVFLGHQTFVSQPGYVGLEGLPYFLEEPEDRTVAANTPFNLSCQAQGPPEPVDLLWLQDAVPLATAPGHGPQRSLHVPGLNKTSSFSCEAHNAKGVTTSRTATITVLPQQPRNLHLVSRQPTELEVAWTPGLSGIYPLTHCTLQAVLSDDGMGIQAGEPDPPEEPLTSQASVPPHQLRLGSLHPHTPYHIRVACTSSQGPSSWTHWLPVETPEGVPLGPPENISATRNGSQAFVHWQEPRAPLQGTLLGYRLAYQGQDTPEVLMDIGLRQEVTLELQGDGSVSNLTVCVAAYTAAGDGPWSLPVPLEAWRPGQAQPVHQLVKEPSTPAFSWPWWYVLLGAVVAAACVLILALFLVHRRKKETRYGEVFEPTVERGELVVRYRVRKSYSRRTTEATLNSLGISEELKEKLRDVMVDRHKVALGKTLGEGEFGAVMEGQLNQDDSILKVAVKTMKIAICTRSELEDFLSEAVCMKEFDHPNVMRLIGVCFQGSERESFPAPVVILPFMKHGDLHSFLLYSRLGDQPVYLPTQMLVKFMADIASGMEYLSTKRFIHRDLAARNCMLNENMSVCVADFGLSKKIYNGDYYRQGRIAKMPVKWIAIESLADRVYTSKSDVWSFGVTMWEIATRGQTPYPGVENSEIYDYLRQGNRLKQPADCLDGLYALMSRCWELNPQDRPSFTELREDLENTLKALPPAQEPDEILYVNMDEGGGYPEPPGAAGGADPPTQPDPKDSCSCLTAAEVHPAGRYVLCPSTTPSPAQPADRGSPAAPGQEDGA
Sequence of Dual specificity mitogen-activated protein kinase kinase 4 (Homo sapiens) (P45985 whole entry): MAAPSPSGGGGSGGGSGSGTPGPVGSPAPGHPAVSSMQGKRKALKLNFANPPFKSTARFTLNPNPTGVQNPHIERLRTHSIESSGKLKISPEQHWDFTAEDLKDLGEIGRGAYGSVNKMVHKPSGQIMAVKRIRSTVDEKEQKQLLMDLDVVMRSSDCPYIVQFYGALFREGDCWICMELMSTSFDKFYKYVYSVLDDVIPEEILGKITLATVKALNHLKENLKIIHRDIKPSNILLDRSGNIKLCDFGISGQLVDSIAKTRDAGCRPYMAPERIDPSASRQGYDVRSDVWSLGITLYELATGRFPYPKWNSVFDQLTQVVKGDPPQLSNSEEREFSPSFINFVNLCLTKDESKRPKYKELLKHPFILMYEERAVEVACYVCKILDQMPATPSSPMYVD
Sequence of Dual specificity tyrosine-phosphorylation-regulated kinase 2 (Homo sapiens) (Q92630 whole entry): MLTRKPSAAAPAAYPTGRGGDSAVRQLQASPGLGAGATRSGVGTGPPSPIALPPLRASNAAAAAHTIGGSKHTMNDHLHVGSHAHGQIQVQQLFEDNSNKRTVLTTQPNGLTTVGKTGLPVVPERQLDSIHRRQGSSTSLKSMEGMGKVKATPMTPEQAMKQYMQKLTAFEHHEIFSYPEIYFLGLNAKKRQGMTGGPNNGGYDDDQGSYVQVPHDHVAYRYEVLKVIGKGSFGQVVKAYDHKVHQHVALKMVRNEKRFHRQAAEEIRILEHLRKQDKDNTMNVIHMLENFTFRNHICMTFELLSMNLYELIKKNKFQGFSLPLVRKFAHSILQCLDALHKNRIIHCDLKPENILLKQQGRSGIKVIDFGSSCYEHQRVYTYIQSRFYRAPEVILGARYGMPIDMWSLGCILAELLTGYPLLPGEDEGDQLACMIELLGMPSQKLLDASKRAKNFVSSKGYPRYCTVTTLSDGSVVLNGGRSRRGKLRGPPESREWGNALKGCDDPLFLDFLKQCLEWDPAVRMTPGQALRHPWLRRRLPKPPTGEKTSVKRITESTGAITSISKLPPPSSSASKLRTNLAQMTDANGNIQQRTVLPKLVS
Sequence of Hormonally up-regulated neu tumor-associated kinase (Homo sapiens) (P57058 whole entry): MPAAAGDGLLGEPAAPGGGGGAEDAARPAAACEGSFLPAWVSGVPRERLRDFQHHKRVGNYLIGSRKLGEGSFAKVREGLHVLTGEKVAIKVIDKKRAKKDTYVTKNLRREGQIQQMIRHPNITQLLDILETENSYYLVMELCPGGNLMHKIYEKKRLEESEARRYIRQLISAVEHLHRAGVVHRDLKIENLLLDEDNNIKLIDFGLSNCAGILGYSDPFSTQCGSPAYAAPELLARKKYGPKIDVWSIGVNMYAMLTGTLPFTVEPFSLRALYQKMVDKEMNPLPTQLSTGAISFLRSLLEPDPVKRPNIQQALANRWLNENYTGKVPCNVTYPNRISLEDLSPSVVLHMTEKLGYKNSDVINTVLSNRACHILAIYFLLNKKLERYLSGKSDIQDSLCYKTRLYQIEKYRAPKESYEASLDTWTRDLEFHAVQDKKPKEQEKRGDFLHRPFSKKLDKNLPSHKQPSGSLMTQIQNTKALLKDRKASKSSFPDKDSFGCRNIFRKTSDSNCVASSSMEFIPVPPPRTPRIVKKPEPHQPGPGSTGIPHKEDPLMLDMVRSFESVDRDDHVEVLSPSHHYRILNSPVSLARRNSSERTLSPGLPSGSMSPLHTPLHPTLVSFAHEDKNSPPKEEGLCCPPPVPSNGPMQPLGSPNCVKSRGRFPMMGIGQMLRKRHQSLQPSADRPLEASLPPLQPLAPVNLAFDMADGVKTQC
Sequence of cAMP-dependent protein kinase catalytic subunit PRKX (Homo sapiens) (P51817 whole entry): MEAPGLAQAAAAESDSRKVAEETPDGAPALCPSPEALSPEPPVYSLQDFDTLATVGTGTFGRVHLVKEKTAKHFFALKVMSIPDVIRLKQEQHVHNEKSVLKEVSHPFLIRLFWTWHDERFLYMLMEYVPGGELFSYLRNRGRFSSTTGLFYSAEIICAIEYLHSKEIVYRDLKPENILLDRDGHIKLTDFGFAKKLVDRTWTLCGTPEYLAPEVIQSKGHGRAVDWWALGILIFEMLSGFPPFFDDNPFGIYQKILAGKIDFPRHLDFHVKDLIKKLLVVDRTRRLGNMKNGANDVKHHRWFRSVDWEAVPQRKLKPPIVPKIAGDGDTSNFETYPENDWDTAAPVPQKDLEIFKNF
Sequence of Activin receptor type-1 (Homo sapiens) (Q04771 whole entry): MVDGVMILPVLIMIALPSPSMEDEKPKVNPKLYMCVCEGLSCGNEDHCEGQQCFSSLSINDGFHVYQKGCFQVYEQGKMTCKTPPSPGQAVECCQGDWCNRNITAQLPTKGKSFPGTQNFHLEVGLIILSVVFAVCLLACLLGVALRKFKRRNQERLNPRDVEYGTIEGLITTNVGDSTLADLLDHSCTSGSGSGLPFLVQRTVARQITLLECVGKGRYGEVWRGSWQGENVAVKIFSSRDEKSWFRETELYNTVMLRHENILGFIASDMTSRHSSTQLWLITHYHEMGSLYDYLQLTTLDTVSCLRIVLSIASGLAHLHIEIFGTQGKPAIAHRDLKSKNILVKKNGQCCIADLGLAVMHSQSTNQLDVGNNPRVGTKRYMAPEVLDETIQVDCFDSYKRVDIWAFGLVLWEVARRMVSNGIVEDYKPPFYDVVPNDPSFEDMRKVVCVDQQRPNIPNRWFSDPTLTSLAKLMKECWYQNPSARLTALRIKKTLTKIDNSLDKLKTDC
Sequence of Casein kinase II subunit alpha' (Homo sapiens) (P19784 whole entry, looked up): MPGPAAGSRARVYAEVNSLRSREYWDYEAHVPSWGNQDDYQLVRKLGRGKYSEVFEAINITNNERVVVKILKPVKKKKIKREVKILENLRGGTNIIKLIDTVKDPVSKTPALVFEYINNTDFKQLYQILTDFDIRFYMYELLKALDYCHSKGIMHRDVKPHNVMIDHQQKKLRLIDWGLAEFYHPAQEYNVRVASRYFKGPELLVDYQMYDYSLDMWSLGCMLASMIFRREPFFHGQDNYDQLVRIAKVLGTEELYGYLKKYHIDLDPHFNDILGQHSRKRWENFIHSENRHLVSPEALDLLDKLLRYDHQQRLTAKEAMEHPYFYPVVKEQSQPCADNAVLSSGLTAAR

Compound `CCC(=O)N[C@@H]1CC[C@H](C(=O)N(C)c2ccc(-c3nc4ccccc4o3)cc2)C1` [BI 99990] has a residual activity [1] of 76%, a residual activity [2] of 94% and a residual activity [3] of 100%. For the same compound, the residual activity [4] was 74%, the residual activity [5] was 100% and the residual activity [6] was 100%. For the same compound, the residual activity [7] was 100%, the residual activity [8] was 96% and the residual activity [9] was 100%. For the same compound, the residual activity [10] was 100%, the residual activity [11] was 100% and the residual activity [12] was 100%. It also gave a residual activity [13] of 88%, a residual activity [14] of 100% and a residual activity [15] of 92%. For the same compound, the residual activity [16] was 100%, the residual activity [17] was 54% and the residual activity [18] was 100%. It also gave a residual activity [19] of 87%, a residual activity [20] of 100% and a residual activity [21] of 100%. The residual activity [22] was 100%, the residual activity [23] was 100% and the residual activity [24] was 99%. The residual activity [25] was 62%, the residual activity [26] was 100% and the residual activity [27] was 100%. It also gave a residual activity [28] of 57%, a residual activity [29] of 100% and a residual activity [30] of 75%. The residual activity [31] was 100%, the residual activity [32] was 100% and the residual activity [33] was 100%. The residual activity [34] was 94%, the residual activity [35] was 100% and the residual activity [36] was 100%. The residual activity [37] was 82%, the residual activity [38] was 95% and the residual activity [39] was 77%. The residual activity [40] was 100%, the residual activity [41] was 92% and the inhibition [42] was 19.1%. It also gave an inhibition [43] of 4.47% and an inhibition [44] of 14.1%.
`CCC(=O)N[C@H]1CC[C@@H](C(=O)N(C)c2ccc(-c3nc4ccccc4o3)cc2)C1` [BI 99179] was tested, and the residual activity [1] was 85%, the residual activity [2] was 85% and the residual activity [3] was 93%. The residual activity [4] was 88%, the residual activity [5] was 43% and the residual activity [6] was 87%. It also gave a residual activity [7] of 98%, a residual activity [8] of 100% and a residual activity [9] of 96%. The residual activity [10] was 100%, the residual activity [11] was 100% and the residual activity [12] was 87%. The residual activity [13] was 100%, the residual activity [14] was 76% and the residual activity [15] was 73%. For the same compound, the residual activity [16] was 100%, the residual activity [17] was 100% and the residual activity [18] was 80%. The residual activity [19] was 80%, the residual activity [20] was 100% and the residual activity [21] was 89%. It also gave a residual activity [22] of 89%, a residual activity [23] of 95% and a residual activity [24] of 92%. For the same compound, the residual activity [25] was 69%, the residual activity [26] was 100% and the residual activity [27] was 100%. For the same compound, the residual activity [28] was 86%, the residual activity [29] was 100% and the residual activity [30] was 99%. For the same compound, the residual activity [31] was 77%, the residual activity [32] was 91% and the residual activity [33] was 100%. The residual activity [34] was 100%, the residual activity [35] was 100% and the residual activity [36] was 100%. The residual activity [37] was 100%, the residual activity [38] was 100% and the residual activity [39] was 100%. The residual activity [40] was 83%, the residual activity [41] was 69% and the inhibition [42] was 4.55%. For the same compound, the inhibition [43] was -9.45% and the inhibition [44] was 10.3%.
